Data published in patent publication US20170320939A1, “COLL2-1 PEPTIDE AND ITS NITRATED FORM AS THERAPEUTIC TARGETS FOR OSTEOARTHRITIS TREATMENT” (Université de Liège, priority 2014, published 2017).

How the values were obtained:
IL-6 = IL-6 mRNA expression by Real Time PCR in OA synovial fibroblast cells; assay type: cell-based, human; details: increasing concentrations of peptide, 24 hours
Method: 1.3 Treatment of synovial fibroblast cells. Cells were seeded into a six-well plate at the density of 2×10^5 cells/well in 2 ml of CM. When the cells reached confluence, the CM was replaced with 1% serum medium for 24 h to keep the cells quiescent. Cells were incubated for 24 hours with or without peptides Coll2-1 (^108HRGYPGLDG^116; 0.45 and 4.5 nmol) or Coll2-1NO2 (^108HRGYPGLDG-NO2^116; 4 and 40 pmol) at a range of concentrations found in the blood of osteoarthritic patients.
1.4 RNA extraction and Real Time Reverse Transcriptase-Polymerase Chain Reaction (RT PCR). Total RNA were extracted using the RNeasy Mini Kit (Qiagen, Netherlands) and were reverse transcribed with SuperScript III Reverse Transcriptase (Invitrogen, Belgium) according to the manufacturer's instructions. The cDNAs were quantified by real-time quantitative PCR using the Rotor Gene instrument (Qiagen, Venlo, Netherlands) and the SYBR Premix Ex Taq kit (Takara, Verviers, Belgium). The level of gene expression was determined by interpolation with a standard curve. To standardize mRNA levels, HPRT, a house keeping gene, was amplified as an internal control. […]

female Lewis rats = experiment: In-vivo study, I.A. injection compared to SCW (streptococcal cell walls) model; details: for global histological score, right knee (injected): not significant
Method: An in-vivo study was performed to evaluate the potential immunizing effect of Coll2-1 peptide. This effect was evaluated in comparison with two validated models of rheumatoid arthritis: CIA (Collagen induced arthritis) and SCW (Streptococcal cell walls). The peptide has been injected once subcutaneous, at the base of the tail (S.C.—evaluation of systemic inflammation) or intra-articular (I.A.—evaluation of mono-articular inflammation) in female Lewis rats. Naïve controls (saline) were considered. Animals were euthanized 21 or 28 days after injection.
All animals (n=108 females; 96.0-129.7 gr) included in the study were identified by a unique chip. They were randomly distributed into 8 study groups (n=16/group except nave controls n=6/group, n=8/each time point) before induction (DO) based on their body weight (FIG. 1). • Injected controls (2 groups) • Group 1: bovin type II collagen (CIA)—S.C. (n=16) • Group 2: streptococcal cell wail (SCW)—I.A. (n=16) • Test groups (4 groups) • Group 3: Peptide dose 200 μg/100 μl—S.C. (n=16) • Group 4: Peptide dose 20 μg/100 μl—S.C. (n=16) • Group 5: Peptide dose 5 μg/50 μl—I.A. (n=16) • Group 6: Peptide dose 0.5 μg/50 μl—I.A. (n=16) • Naïve controls (2 groups) • Group 7: saline S.C. (n=6) • Group 8: saline I.A. (n=6)
Two injection ways were chosen to evaluate the potential effect of the peptide: intra-articular (I.A.) and subcutaneous (S.C.), two route classically used in the art.
Coll2-1 peptide was administered either I.A. under a 50 μL volume into the right knee or S.C. under a 100 μL volume at the base of the tail.
SCW was administered I.A. into the right knee under a 50 μL volume. Bovine type II collagen (CIA) was administered under 100 μL volume at the base of the tail.
Two doses of the Coll2-1 peptide were tested in both conditions.
It was administered I.A. at 5 and 0.5 μg under 50 μL
Coll2-1 peptide was administered once (DO).
Joint was considered arthritic when significant signs of redness and/or swelling was noted. Each paw was evaluated with a visual score (0-3) • 0: normal, no joint inflammation • 1: large joint inflammation • 2: medium joint inflammation • 3: small joint (distal) inflammation
A set of 4 values were recorded on each evaluation day. The 4 values were summed for analysis.
Right and left knees diameter were measured using a digital caliper.
Animals were euthanized 21 or 28 days after injection (D0). They were anesthetized with a subcutaneous injection of a Ketamin/Medetomidine mix and further euthanized by exsanguination.
Both entire knees from each animal were processed for histological analysis, They were decalcified in a HCl/EDTA mix (DC2, Qpath, VWR Belgium) for the appropriate time before inclusion in paraffin. Three frontal sections (5 μm) of each compartment were done 200 μm apart in the weight bearing zone using a microtome. Slides were stained according to a standard Safranin-O/Fast green protocol.
Slides were evaluated under a light microscope. Each slide was score for: • Infiltration of inflammatory cells in synovial tissue (0-3) • Inflammatory cells in the joint cavity (exudate) (0-3) • Cartilage proteoglycan depletion (0-3) • Loss of articular cartilage (0-3) • Bone erosion (0-3).
Infiltration of inflammatory cells in synovial tissue and inflammatory cells in the joint cavity were considered together (sum of the scores) as inflammatory parameters for the analysis of the detailed criteria.
Statistical analysis was performed with the appropriate test using GraphPad. • Visual score and evaluations (knee diameter measurements) were analyzed with a two way ANOVA followed, if positive, by Tukey's multiple comparison test. Graphs represented the mean of each group at each evaluated time point. • Histological scores were analyzed with a Kruskal Wallis for non-parametric values followed, if positive, by a Dunn's multiple comparison test. Graphs presented as box and whisker plots. Exact p values were provided and asterisks representation were also performed.

HRGYPGLDG [Coll2-1]
IL-6 expression (IL-6): increased | cartilage degradation score, left knee (female Lewis rats; Coll2-1 0.5 μg I.A. (Gr6)): significant increase | inflammatory score, left knee, versus Gr8 (female Lewis rats; Coll2-1 0.5 μg I.A. (Gr6)): significant increase | matrix proteoglycan loss score, left knee, versus Gr8 (female Lewis rats; Coll2-1 0.5 μg I.A. (Gr6)): significant increase | right knee diameter, difference versus Gr8 (saline) (female Lewis rats; Coll2-1 0.5 μg I.A. (Gr6), D3): statistically different | arthritis visual score, difference versus saline (Gr8) (female Lewis rats; Coll2-1 0.5 μg I.A. (Gr6), D28): statistically different | cartilage degradation score, right knee, versus Gr8 (female Lewis rats; Coll2-1 0.5 μg I.A. (Gr6), D28): significant increase | global histological score, left knee, difference versus Gr2 (female Lewis rats; Coll2-1 0.5 μg I.A. (Gr6), D28): not significant except for Gr6 | global histological score, left knee, difference versus Gr8 (female Lewis rats; Coll2-1 0.5 μg I.A. (Gr6), D28): not significant except for Gr6 | global histological score, right knee (injected) (female Lewis rats; Coll2-1 0.5 μg I.A. (Gr6)): intermediate between Gr8 (saline) and Gr2 (SCW) | global histological score, left knee, differences (female Lewis rats; Coll2-1 5 μg I.A. (Gr5)): not significant | arthritis visual score, difference versus Gr 6 (Coll2-1 peptide 0.5 μg) (female Lewis rats; Coll2-1 5 μg I.A. (Gr5), D17): statistically different | arthritis visual score, difference versus saline (Gr8) (female Lewis rats; Coll2-1 5 μg I.A. (Gr5), D17): statistically different | left knee diameter, difference versus Gr2 (SCW) (female Lewis rats; Coll2-1 5 μg I.A. (Gr5), D17): statistically different | left knee diameter, difference versus Gr8 (saline) (female Lewis rats; Coll2-1 5 μg I.A. (Gr5), D17): statistically different | right knee diameter, difference versus Gr8 (saline) (female Lewis rats; Coll2-1 5 μg I.A. (Gr5), D17): statistically significance | arthritis visual score, difference versus SCW (Gr2) (female Lewis rats; Coll2-1 5 μg I.A. (Gr5), D24): statistically different | global histological score, right knee (injected) (female Lewis rats; Coll2-1 5 μg I.A. (Gr5)): intermediate between Gr8 (saline) and Gr2 (SCW) | right knee diameter, difference Gr5 versus Gr6 (female Lewis rats; Coll2-1 5 μg versus 0.5 μg I.A., D17): statistically different | inflammatory criteria, right knee (female Lewis rats; Coll2-1 peptide I.A., D28, not statistically significant): intermediate increase | histological score (conclusion) (female Lewis rats; SCW arthritis model, I.A. injection, D21 and D28): intermediate scores | arthritis visual score (female Lewis rats; single I.A. injection into the right knee, D0 to D28): induced an increase
